Legend:
CDK6 = target: T1, CDK6 (Homo sapiens, UniProt Q00534); assay: luminescence kinase activity assay (BPS Bioscience CDK6/CyclinD3 kit #[…]); format: biochemical
T1 construct: purified recombinant CDK6/CyclinD3; with CyclinD3

CDK4 = target: T2, CDK4 (Homo sapiens, UniProt P11802); assay: luminescence kinase activity assay (BPS Bioscience CDK4/CyclinD3 kit #[…]); format: biochemical
T2 construct: purified recombinant CDK4/CyclinD3; with CyclinD3
T2 sequence (P11802 2-303): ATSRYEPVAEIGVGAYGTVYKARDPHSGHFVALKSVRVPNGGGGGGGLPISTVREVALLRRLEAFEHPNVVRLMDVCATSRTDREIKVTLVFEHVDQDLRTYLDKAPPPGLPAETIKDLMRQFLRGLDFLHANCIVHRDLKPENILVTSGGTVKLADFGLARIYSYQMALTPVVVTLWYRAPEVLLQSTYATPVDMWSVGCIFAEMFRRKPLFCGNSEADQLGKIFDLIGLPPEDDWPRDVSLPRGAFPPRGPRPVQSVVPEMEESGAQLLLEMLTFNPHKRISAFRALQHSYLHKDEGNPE
T2 sequence (P30281 whole entry partner): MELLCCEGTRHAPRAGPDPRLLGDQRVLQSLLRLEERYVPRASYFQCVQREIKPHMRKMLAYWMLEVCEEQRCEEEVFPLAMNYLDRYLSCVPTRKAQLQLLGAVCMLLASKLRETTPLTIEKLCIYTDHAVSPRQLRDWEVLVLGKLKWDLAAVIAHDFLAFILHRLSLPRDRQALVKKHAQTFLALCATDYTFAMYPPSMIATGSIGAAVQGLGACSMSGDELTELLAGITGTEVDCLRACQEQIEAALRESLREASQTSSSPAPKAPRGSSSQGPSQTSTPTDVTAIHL

T1 sequence (Q00534 whole entry): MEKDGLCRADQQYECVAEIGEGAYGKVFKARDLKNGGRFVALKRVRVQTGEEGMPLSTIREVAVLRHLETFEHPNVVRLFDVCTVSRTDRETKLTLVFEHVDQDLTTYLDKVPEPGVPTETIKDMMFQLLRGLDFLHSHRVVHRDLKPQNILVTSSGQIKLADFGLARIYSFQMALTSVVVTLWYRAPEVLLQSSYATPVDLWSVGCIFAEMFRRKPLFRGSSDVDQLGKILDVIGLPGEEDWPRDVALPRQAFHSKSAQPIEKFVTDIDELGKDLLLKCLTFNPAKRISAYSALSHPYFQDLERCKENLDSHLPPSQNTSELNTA
T1 sequence (P30281 whole entry partner): as the sequence (P30281 whole entry partner) above

Work on `CC(C)n1cnc2c(F)cc(-c3nc(Nc4ccc(CN5CCN(Cc6ccc(F)cc6)CC5)cn4)ncc3F)cc21` [NT431, 5-fluoro-4-(4-fluoro-1-isopropyl-1H-benzo[d]imidazol-6-yl)-N-(5-((4-(4-fluorobenzyl)piperazin-1-yl)methyl)pyridin-2-yl)pyrimidin-2-amine] yielded an IC50 (CDK6) of 47.1 nM and an IC50 (CDK4) of 23.7 nM.

Reference: article PMC11241330, “Development of a Radiolabeled Cyclin-Dependent Kinases 4 and 6 (CDK4/6) Inhibitor for Brain and Cancer PET Imaging” (International Journal of Molecular Sciences, 2024)
